In ChEMBL document CHEMBL3044940, “Activities of essential oils from Asarum heterotropoides var. mandshuricum against five phytopathogens” (Crop Prot, 2010):
≈ marks a conversion by molar mass, not a printed value. Calls of active or inactive are those of the source. The calls are words filed in the database; no cut-off is given here.

Legend:
Type in all cases: functional, organism-based
Fusarium solani = assay: Growth inhibition of Fusarium solani after 48 hr
Alternaria humicola = assay: Growth inhibition of Alternaria humicola after 48 hr
[1] = system: Colletotrichum gloeosporioides; assay: Growth inhibition of Colletotrichum gloeosporioides after 48 hr
Rhizoctonia solani = assay: Growth inhibition of Rhizoctonia solani after 48 hr
Phytophthora cactorum [2] = assay: Growth inhibition of Phytophthora cactorum after 48 hr
Phytophthora cactorum [3] = assay: Induction of changes in hyphae ultrastructures in Phytophthora cactorum assessed as endoplasmic reticulum structure changes at 0.052 ug/ml by transmission electron microscopy
Phytophthora cactorum [4] = assay: Induction of changes in hyphae ultrastructures in Phytophthora cactorum assessed as mitochondria level changes at 0.052 ug/ml by transmission electron microscopy
Phytophthora cactorum [5] = assay: Induction of changes in hyphae ultrastructures in Phytophthora cactorum assessed as membranes obscuring at 0.052 ug/ml by transmission electron microscopy
Phytophthora cactorum [6] = assay: Induction of changes in hyphae ultrastructures in Phytophthora cactorum assessed as cell wall thickening at 0.052 ug/ml by transmission electron microscopy
Phytophthora cactorum [7] = assay: Induction of changes in hyphae ultrastructures in Phytophthora cactorum assessed as plasmalemma invagination at 0.052 ug/ml by transmission electron microscopy; conditions: Plasma
Phytophthora cactorum [8] = assay: Induction of changes in hyphae ultrastructures in Phytophthora cactorum at 0.052 ug/ml by transmission electron microscopy

SMILES | growth inhibition (GI) (Fusarium solani) | IC50 (Alternaria humicola) | IC50 [1] | IC50 (Rhizoctonia solani) | IC50 (Phytophthora cactorum [2]) | Activity (Phytophthora cactorum [3]) | Activity (Phytophthora cactorum [4]) | Activity (Phytophthora cactorum [5]) | Activity (Phytophthora cactorum [6]) | Activity (Phytophthora cactorum [7]) | Activity (Phytophthora cactorum [8])
C=CCc1ccc(OC)c(OC)c1 [METHYLEUGENOL] | inactive | 0.144 µg/mL (≈ 0.808 µM) | 0.09 µg/mL (≈ 0.505 µM) | 0.279 µg/mL (≈ 1.57 µM) | 0.052 µg/mL (≈ 0.292 µM) | Active | Active | Active | Active | Active | Active
COCC(=O)N(c1c(C)cccc1C)C(C)C(=O)OC (configuration not stated) [METALAXYL] |  |  |  |  | 0.013 µg/mL (≈ 0.0465 µM) |  |  |  |  |  | 
